Measured values published in article PMC11417675, “Systematic Evaluation of Tyrosine Kinase Inhibitors as OATP1B1 Substrates Using a Competitive Counterflow Screen” (Cancer Research Communications, 2024).
Like-named read-outs stand apart in the source and are kept apart here. Blank lines part the entries; values can stand above or below the compound they belong to.

Key:
[1] = system: OATP2B1; conditions: General Comments; ref PMID#25165131; cited from earlier work
[2] = system: OATP1A2; conditions: General Comments; ref PMID#25165131; cited from earlier work
[3] = system: OCTN2; set-up: method as in PMID#25165131; conditions: General Comments; ref PMID#25165131; cited from earlier work
[4] = target: T1, OATP1B1 (Homo sapiens, UniProt Q9Y6L6); assay: Competitive counterflow (CCF) assay, efflux of preloaded [3H]-EβG in OATP1B1-overexpressing HEK293 cells; conditions: for efflux of preloaded radiolabeled EβG induced by control substrates: 100 μmol/L, 30 min, after 1 h preload with 0.01 μmol/L [3H]-EβG; for hit in CCF assay (efflux >50% relative to EβG): at all three tested concentrations (1, 10, 100 μmol/L)
T1 sequence (Q9Y6L6 1-691): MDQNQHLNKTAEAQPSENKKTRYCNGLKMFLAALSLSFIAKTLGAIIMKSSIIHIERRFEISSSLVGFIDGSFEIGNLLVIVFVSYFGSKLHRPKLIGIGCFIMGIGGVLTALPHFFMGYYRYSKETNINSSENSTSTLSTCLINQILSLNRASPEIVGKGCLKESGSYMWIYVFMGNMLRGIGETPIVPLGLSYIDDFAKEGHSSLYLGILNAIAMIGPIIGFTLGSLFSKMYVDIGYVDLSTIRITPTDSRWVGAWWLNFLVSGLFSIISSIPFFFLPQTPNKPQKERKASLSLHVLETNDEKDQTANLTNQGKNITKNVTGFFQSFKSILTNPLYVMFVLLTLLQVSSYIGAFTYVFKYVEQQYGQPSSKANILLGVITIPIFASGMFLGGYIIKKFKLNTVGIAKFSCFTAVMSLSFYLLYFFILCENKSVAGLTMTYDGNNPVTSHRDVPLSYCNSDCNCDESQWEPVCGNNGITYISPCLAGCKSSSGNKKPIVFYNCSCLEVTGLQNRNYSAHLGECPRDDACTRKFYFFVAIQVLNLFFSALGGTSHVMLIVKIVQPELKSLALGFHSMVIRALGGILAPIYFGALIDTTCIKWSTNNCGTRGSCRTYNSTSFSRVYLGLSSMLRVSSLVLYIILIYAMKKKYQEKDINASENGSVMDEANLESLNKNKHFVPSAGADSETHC
Method: Cellular accumulation assays were performed in human embryonic kidney cells (HEK293; RRID: CVCL_0045) that were genetically engineered to overexpress human OATP1B1 ([23]–[25]). Cell lines were authenticated by Applied Biosystems AmpFISTR Identifiler testing with PCR amplification. […] All cells were used within passage 30 and verified to be Mycoplasma-free using the MycoAlert Mycoplasma Detection Kit (Lonza). At 80% to 90% confluency, cells were seeded on poly-D-lysine–coated 96-well plates 24 hours prior to the assay (2,500 cells/well), and expression of OATP1B1 was induced with 1 μg/mL doxycycline in phenol red–free DMEM.
The CCF assay uses OATP1B1-overexpressing HEK293 cells seeded and cultured as described above. During the study, cells were preincubated at room temperature (∼ 20°C) with 0.01 μmol/L EβG in prewarmed serum-free and phenol red–free DMEM for 1 hour. Following preincubation, each well was spiked with 1 μL of a stock solution containing 0.1, 1, or 10 mmol/L of positive control (EβG), negative control (glucose), test compound dissolved in Dimethylsulfoxide (DMSO), or DMSO only as a vehicle control. Following a 30-minute after incubation with a test compound, the assay was stopped by three consecutive washes with PBS at 4°C. Finally, cells were solubilized with 150 μL of 1% Triton X-100 in PBS for 2 hours at room temperature under constant agitation. A volume of 100 μL of cell lysate was transferred to clear-bottom 96-well isoplates, 200 μL of MicroScint-PS (PerkinElmer) scintillation fluid was added to each sample-containing well, and the plate was subsequently vortex-mixed for 30 seconds. Total radioactivity was determined on a MicroBeta microplate scintillation counter (PerkinElmer), and the resulting counts were then normalized to total protein as determined using a Pierce protein assay (Thermo Fisher Scientific).

[5] = system: OATP1B1; conditions: cited from earlier work; for reported to inhibit OATP1B1: literature reports, ref not given
[6] = target: T2, VEGFR2 (Homo sapiens, UniProt P35968); assay: IP-based VEGFR kinase assay (ADP-Glo) in OATP1B1-overexpressing vs vector control HEK293 cells; type: cell-based; conditions: 10 μmol/L, 1 h; OATP1B1-overexpressing cells compared with control cells not overexpressing OATP1B1
T2 construct: expressed in transfected cells; host or cells: HEK293 (OATP1B1-overexpressing or empty vector)
T2 sequence (P35968 20-1356, species assumed): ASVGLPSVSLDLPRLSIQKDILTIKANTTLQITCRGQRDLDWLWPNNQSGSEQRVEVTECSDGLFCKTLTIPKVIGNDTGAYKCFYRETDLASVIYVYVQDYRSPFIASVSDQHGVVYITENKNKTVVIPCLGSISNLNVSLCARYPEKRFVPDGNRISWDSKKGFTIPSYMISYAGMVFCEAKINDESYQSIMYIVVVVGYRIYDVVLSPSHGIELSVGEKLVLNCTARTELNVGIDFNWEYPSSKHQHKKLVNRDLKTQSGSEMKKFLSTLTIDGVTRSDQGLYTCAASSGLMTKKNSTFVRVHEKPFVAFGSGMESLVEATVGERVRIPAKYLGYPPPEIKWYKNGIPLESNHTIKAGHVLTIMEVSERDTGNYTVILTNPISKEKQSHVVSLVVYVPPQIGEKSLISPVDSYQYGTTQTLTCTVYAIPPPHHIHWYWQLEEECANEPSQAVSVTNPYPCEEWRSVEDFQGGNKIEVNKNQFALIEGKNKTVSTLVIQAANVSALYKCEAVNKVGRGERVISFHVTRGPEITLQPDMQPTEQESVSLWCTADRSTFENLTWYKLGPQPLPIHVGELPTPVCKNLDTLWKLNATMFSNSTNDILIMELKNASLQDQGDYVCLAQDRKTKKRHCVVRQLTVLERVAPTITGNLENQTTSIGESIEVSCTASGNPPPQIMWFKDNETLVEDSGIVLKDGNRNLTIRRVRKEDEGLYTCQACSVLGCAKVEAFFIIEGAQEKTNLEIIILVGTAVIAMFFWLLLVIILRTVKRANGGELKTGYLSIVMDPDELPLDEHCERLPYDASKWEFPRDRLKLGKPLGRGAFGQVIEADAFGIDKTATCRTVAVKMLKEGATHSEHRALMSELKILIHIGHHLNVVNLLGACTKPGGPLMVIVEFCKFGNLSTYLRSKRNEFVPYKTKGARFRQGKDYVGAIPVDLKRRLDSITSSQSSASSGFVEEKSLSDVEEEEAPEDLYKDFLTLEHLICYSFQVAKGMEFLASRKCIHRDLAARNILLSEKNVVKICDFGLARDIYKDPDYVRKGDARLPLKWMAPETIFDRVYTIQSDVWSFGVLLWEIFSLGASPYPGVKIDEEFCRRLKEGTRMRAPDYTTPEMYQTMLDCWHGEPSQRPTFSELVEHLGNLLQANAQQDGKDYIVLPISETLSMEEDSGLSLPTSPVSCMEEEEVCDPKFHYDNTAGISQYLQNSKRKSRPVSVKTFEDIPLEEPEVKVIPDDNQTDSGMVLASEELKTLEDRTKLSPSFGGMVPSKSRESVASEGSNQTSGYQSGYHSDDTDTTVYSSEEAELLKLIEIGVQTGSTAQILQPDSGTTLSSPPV

Structure (SMILES): CCOc1cc2ncc(C#N)c(Nc3ccc(OCc4ccccn4)c(Cl)c3)c2cc1NC(=O)/C=C/CN(C)C [Neratinib]
IC50 [1]: 2.68 µM
IC50 [2]: 0.39 µM
OCTN2 inhibition (in words) [3]: No inhibition of OATP1B1 and OCTN2 was observed at concentrations up to 10 µM

Structure (SMILES): C[C@]12CC[C@@H]3c4ccc(O)cc4CC[C@H]3[C@@H]1CC[C@@H]2O[C@@H]1O[C@H](C(=O)O)[C@@H](O)[C@H](O)[C@H]1O [EβG, estradiol [6,7-^3H(N)]-17β-D-glucuronide]
efflux of preloaded radiolabeled EβG induced by control substrates [4]: induced significant efflux

Structure (SMILES): CNC(=O)c1ccccc1Sc1ccc2c(/C=C/c3ccccn3)n[nH]c2c1 [Axitinib]
previously claimed to be substrates of OATP1B1 [5]: substrates of OATP1B1
pattern of efflux vs concentration in CCF assay ([4]; 1, 10 and 100 μmol/L): solely at lower concentrations

Structure (SMILES): COC(=O)N[C@@H](C)CNc1nccc(-c2cn(C(C)C)nc2-c2cc(Cl)cc(NS(C)(=O)=O)c2F)n1 [Encorafenib]
reported to inhibit OATP1B1 [5]: reported to inhibit OATP1B1

Structure (SMILES): COC(=O)c1ccc2c(c1)NC(=O)/C2=C(\Nc1ccc(N(C)C(=O)CN2CCN(C)CC2)cc1)c1ccccc1 [Nintedanib]
pattern of efflux vs concentration in CCF assay ([4]; 1, 10 and 100 μmol/L): clearly dependent on concentration

Structure (SMILES): C[C@@H](Oc1cc(-c2cnn(C3CCNCC3)c2)cnc1N)c1c(Cl)ccc(F)c1Cl [Crizotinib]
previously claimed to be substrates of OATP1B1 [5]: substrates of OATP1B1
pattern of efflux vs concentration in CCF assay ([4]; 1, 10 and 100 μmol/L): clearly dependent on concentration

Structure (SMILES): CC[C@H](C)C(=O)O[C@H]1C[C@H](O)C=C2C=C[C@H](C)[C@H](CC[C@@H](O)C[C@@H](O)CC(=O)O)[C@H]21 [pravastatin]
efflux of preloaded radiolabeled EβG induced by control substrates [4]: induced significant efflux

Structure (SMILES): CCN(CC)CCNC(=O)c1c(C)[nH]c(/C=C2\C(=O)Nc3ccc(F)cc32)c1C [Sunitinib]
pattern of efflux vs concentration in CCF assay [4]: clearly dependent on concentration

Structure (SMILES): CNC(=O)c1cc(Oc2ccc(NC(=O)Nc3ccc(Cl)c(C(F)(F)F)c3)cc2)ccn1 [Sorafenib]
previously claimed to be substrates of OATP1B1 [5]: substrates of OATP1B1
hit in CCF assay (efflux >50% relative to EβG) [4]: hits

Structure (SMILES): CS(=O)(=O)CCNCc1ccc(-c2ccc3ncnc(Nc4ccc(OCc5cccc(F)c5)c(Cl)c4)c3c2)o1 [Lapatinib]
pattern of efflux vs concentration in CCF assay ([4]; 1, 10 and 100 μmol/L): solely at lower concentrations

Structure (SMILES): C[C@]12CC[C@@H]3c4ccc(OS(=O)(=O)O)cc4CC[C@H]3[C@@H]1CCC2=O [E3S, estrone-3-sulfate]
efflux of preloaded radiolabeled EβG induced by control substrates [4]: induced significant efflux

Structure (SMILES): Cn1cnc2c(F)c(Nc3ccc(Br)cc3Cl)c(C(=O)NOCCO)cc21 [Selumetinib]
pattern of efflux vs concentration in CCF assay ([4]; 1, 10 and 100 μmol/L): solely at lower concentrations

Structure (SMILES): COc1cc(Nc2ncc(F)c(Nc3ccc4c(n3)N(COP(=O)(O)O)C(=O)C(C)(C)O4)n2)cc(OC)c1OC [Fostamatinib]
hit in CCF assay (efflux >50% relative to EβG) [4]: hits

Structure (SMILES): CO[C@H]1/C=C/O[C@@]2(C)Oc3c(C)c(O)c4c(O)c(c(/C=N/N5CCN(C)CC5)c(O)c4c3C2=O)NC(=O)/C(C)=C\C=C\[C@H](C)[C@H](O)[C@@H](C)[C@@H](O)[C@@H](C)[C@H](OC(C)=O)[C@@H]1C [rifampin]
efflux of preloaded radiolabeled EβG induced by control substrates [4]: induced significant efflux

Structure (SMILES): C=CC(=O)Nc1cc(Nc2nccc(-c3cn(C)c4ccccc34)n2)c(OC)cc1N(C)CCN(C)C [Osimertinib]
pattern of efflux vs concentration in CCF assay ([4]; 1, 10 and 100 μmol/L): clearly dependent on concentration

Structure (SMILES): Cc1ccc(C(=O)Nc2ccc(CN3CCN(C)CC3)c(C(F)(F)F)c2)cc1C#Cc1cnc2cccnn12 [Ponatinib]
Interaction: Substrate OATP1B1 [5]: N
OATP1B1 inhibition (in words) [5]: Inhibits P-gp( IC50 =0.49uM), BCRP (IC50 = 0.013 µM). Did not inhibit OATP1B1, OATP1B3, OCT1, OCT2, OAT1, or OAT3. Not a substrate of OATP1B1, OATP1B3, or OCT1.
OATP1B1 substrate (in words) [5]: Inhibits P-gp( IC50 =0.49uM), BCRP (IC50 = 0.013 µM). Did not inhibit OATP1B1, OATP1B3, OCT1, OCT2, OAT1, or OAT3. Not a substrate of OATP1B1, OATP1B3, or OCT1.

More lines, main results first:

pattern of efflux vs concentration in CCF assay ([4]; 1, 10 and 100 μmol/L): solely at lower concentrations
Structure (SMILES): Cc1cc(Nc2ncnc3ccc(NC4=NC(C)(C)CO4)cc23)ccc1Oc1ccn2ncnc2c1 [Tucatinib]

pattern of efflux vs concentration in CCF assay ([4]; 1, 10 and 100 μmol/L): clearly dependent on concentration
Structure (SMILES): Cc1cc(Nc2ncc(Cl)c(Nc3ccccc3S(=O)(=O)C(C)C)n2)c(OC(C)C)cc1C1CCNCC1 [Ceritinib]

pattern of efflux vs concentration in CCF assay ([4]; 1, 10 and 100 μmol/L): solely at lower concentrations
Structure (SMILES): Cc1nc(Nc2ncc(C(=O)Nc3c(C)cccc3Cl)s2)cc(N2CCN(CCO)CC2)n1 [Dasatinib]

VEGFR kinase activity after pazopanib [6]: markedly reduced kinase activity
Structure (SMILES): Cc1ccc(Nc2nccc(N(C)c3ccc4c(C)n(C)nc4c3)n2)cc1S(N)(=O)=O [Pazopanib]
previously claimed to be substrates of OATP1B1 [5]: substrates of OATP1B1
reported to inhibit OATP1B1 [5]: reported to inhibit OATP1B1

pattern of efflux vs concentration in CCF assay ([4]; 1, 10 and 100 μmol/L): solely at lower concentrations
Structure (SMILES): FC(F)(F)c1ccc(CNc2ccc(Cc3c[nH]c4ncc(Cl)cc34)cn2)cn1 [Pexidartinib]

pattern of efflux vs concentration in CCF assay ([4]; 1, 10 and 100 μmol/L): clearly dependent on concentration
Structure (SMILES): O=C(c1ccc(F)c(F)c1Nc1ccc(I)cc1F)N1CC(O)([C@@H]2CCCCN2)C1 [Cobimetinib]

pattern of efflux vs concentration in CCF assay ([4]; 1, 10 and 100 μmol/L): solely at lower concentrations
Structure (SMILES): CC(C)(C)c1nc(-c2cccc(NS(=O)(=O)c3c(F)cccc3F)c2F)c(-c2ccnc(N)n2)s1 [Dabrafenib]

efflux of preloaded radiolabeled EβG induced by control substrates [4]: failed to induce efflux
Structure (SMILES): OC[C@H]1OC(O)[C@H](O)[C@@H](O)[C@@H]1O (some centres unmarked) [glucose]

pattern of efflux vs concentration in CCF assay ([4]; 1, 10 and 100 μmol/L): solely at lower concentrations
Structure (SMILES): CO[C@]1(C(=O)N[C@@H](C)c2ccc(-n3cc(F)cn3)nc2)CC[C@H](c2nc(C)cc(Nc3cc(C)[nH]n3)n2)CC1 [Pralsetinib]
reported to inhibit OATP1B1 [5]: reported to inhibit OATP1B1

pattern of efflux vs concentration in CCF assay ([4]; 1, 10 and 100 μmol/L): solely at lower concentrations
Structure (SMILES): COc1cc2nccc(Oc3ccc(NC(=O)C4(C(=O)Nc5ccc(F)cc5)CC4)cc3)c2cc1OC [Cabozantinib]

pattern of efflux vs concentration in CCF assay ([4]; 1, 10 and 100 μmol/L): solely at lower concentrations
Structure (SMILES): Cc1cn(-c2cc(NC(=O)c3ccc(C)c(Nc4nccc(-c5cccnc5)n4)c3)cc(C(F)(F)F)c2)cn1 [Nilotinib]

pattern of efflux vs concentration in CCF assay ([4]; 1, 10 and 100 μmol/L): clearly dependent on concentration
Structure (SMILES): COc1cc2c(Nc3ccc(Br)cc3F)ncnc2cc1OCC1CCN(C)CC1 [Vandetanib]
